This passage reports water content and aqueous solubility results from patent US8952013B2, “Controlled release sterile injectable aripiprazole formulation and method” (Otsuka Pharmaceutical Co., Ltd., priority 2003, dated 2015).

SMILES strings stand for the structures. Some results are limits rather than exact numbers.

Data set [1] can be described thus: hygroscopicity: water content after storage in a dessicator. Format: physicochemical. Particulars: after 24 hours inside a dessicator at 60° C. and a humidity of 100%. On the procedure:
Aripiprazole Anhydrous Crystals B employed in the present invention have low hygroscopicity. For example, Aripiprazole Anhydrous Crystals B employed in the present invention maintain a water content of 0.4% or less after 24 hours inside a dessicator set at a temperature of 60° C. and a humidity of 100%.
Well-known methods of measuring water content can be used as long as they are methods commonly used for measuring the water content of crystals. For example, a method such as the Karl Fischer method can be used.

The conditions of data set [2]: at room temperature; cited from earlier work.

As a reminder, the aqueous solubility is the concentration that dissolves in the medium under given conditions.

Molecule `O=C1CCc2ccc(OCCCCN3CCN(c4cccc(Cl)c4Cl)CC3)cc2N1` [Aripiprazole Anhydrous Crystals B, Aripiprazole] returned a water content in data set [1] of at most 0.4%.

With `O=C1CCc2ccc(OCCCCN3CCN(c4cccc(Cl)c4Cl)CC3)cc2N1` [Aripiprazole], the aqueous solubility in data set [2] was below 1 µg/mL.
